This is an account of results in ChEMBL document CHEMBL5291721, “A preclinical secondary pharmacology resource illuminates target-adverse drug reaction associations of marketed drugs” (Nat Commun, 2023).

Molecules are shown by their SMILES.

The target in test [1] is T1, Muscarinic acetylcholine receptor M1 (Homo sapiens, UniProt P11229).
T1 sequence (P11229 whole entry): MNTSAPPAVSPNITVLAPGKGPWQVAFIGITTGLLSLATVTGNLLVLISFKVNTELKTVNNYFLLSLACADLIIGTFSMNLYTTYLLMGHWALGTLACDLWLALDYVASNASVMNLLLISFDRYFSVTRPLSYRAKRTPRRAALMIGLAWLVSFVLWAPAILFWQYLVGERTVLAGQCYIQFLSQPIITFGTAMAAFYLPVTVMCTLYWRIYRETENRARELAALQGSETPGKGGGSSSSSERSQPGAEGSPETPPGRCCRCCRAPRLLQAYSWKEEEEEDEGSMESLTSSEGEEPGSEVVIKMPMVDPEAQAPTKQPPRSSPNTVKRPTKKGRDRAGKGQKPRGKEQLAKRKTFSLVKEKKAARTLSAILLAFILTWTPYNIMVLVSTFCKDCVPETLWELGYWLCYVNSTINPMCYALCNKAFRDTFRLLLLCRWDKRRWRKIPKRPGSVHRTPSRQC
It counts as functional, cell-based.

In another test the target is T2, Progesterone receptor (Homo sapiens, UniProt P06401).
T2 sequence (P06401 whole entry): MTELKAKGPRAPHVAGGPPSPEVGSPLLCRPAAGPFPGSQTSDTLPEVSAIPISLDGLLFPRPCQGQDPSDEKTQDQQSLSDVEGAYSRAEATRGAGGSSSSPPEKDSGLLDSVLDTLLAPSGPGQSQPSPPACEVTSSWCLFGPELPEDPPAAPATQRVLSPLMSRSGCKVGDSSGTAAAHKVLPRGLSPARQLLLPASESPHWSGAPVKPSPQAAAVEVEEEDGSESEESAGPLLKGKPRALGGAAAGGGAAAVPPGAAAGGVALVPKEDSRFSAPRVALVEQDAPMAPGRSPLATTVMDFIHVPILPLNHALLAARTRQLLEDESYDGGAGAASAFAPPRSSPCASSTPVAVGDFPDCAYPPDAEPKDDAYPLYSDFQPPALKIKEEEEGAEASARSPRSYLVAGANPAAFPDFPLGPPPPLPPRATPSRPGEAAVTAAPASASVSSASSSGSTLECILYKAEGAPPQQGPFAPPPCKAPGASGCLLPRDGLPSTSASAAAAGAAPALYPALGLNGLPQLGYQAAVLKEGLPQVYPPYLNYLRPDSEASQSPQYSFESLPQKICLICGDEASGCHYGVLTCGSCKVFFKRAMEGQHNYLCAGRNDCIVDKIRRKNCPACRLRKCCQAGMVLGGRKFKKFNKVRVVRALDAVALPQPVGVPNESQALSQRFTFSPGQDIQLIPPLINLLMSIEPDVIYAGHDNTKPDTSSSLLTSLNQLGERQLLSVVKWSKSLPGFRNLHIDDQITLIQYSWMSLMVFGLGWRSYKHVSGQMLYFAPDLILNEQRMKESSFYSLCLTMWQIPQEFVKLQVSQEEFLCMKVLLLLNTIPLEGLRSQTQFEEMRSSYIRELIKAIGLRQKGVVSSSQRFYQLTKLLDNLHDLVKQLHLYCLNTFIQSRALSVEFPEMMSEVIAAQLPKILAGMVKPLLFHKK

The target in test [2] is Sodium-dependent dopamine transporter (Homo sapiens, UniProt Q01959).
The next test concerns the target T3, Glucocorticoid receptor (Homo sapiens, UniProt P04150).
T3 sequence (P04150 whole entry): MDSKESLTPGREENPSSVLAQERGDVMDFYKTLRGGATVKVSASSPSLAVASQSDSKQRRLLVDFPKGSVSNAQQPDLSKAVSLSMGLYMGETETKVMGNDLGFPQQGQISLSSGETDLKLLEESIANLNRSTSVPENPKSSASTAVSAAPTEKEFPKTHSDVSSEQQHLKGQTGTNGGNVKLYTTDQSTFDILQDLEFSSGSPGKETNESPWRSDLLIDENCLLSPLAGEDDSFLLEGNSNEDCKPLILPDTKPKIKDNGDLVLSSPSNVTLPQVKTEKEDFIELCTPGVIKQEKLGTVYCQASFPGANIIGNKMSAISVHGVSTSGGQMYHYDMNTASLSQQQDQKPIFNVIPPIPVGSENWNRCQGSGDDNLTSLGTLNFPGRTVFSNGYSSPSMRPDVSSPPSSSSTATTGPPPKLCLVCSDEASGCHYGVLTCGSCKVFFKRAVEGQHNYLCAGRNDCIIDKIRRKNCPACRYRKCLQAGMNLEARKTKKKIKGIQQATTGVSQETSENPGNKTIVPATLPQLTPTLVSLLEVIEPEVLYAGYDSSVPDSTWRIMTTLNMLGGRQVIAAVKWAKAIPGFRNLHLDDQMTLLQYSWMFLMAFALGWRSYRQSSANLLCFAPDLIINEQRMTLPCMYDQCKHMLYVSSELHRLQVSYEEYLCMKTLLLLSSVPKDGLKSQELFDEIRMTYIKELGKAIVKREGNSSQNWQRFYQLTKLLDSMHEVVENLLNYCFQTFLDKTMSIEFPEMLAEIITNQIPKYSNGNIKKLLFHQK

Test [3] deals with Kappa-type opioid receptor (Homo sapiens, UniProt P41145).
Further: assay procedure not described here.

Sequence of Sodium-dependent dopamine transporter (Q01959 whole entry): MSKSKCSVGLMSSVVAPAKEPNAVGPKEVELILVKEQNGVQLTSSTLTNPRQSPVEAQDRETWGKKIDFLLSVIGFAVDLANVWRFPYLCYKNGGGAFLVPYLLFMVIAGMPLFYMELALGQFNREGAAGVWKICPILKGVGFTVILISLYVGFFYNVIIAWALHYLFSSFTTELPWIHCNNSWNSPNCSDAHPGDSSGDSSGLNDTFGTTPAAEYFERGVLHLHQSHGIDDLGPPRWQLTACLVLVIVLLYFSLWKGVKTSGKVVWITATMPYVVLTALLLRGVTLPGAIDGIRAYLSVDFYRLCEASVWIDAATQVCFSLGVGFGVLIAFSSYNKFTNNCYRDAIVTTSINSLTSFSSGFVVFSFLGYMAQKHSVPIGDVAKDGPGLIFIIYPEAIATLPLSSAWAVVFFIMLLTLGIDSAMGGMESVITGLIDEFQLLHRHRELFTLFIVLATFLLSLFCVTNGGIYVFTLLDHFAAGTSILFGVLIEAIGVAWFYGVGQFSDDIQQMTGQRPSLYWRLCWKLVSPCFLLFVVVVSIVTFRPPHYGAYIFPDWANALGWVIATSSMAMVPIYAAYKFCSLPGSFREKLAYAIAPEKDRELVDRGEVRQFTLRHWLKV
Sequence of Kappa-type opioid receptor (P41145 whole entry): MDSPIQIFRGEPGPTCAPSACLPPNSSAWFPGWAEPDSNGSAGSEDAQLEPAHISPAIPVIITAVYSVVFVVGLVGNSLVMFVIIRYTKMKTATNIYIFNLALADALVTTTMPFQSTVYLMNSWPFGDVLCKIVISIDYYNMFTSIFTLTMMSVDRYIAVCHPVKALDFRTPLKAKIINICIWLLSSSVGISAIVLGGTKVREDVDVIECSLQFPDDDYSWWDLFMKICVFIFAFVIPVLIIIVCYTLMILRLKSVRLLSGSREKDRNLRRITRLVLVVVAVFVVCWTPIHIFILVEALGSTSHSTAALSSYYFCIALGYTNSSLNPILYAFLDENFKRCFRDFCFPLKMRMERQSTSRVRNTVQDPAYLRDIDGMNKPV

As for `O=C(O)c1cc(O)ccc1O` [GENTISIC ACID], the concentration at half-maximal activity (AC50) (in test [1]; at Progesterone receptor; in test [2]) was over 30 µM throughout.

`CN(C)CC(c1ccc(O)cc1)C1(O)CCCCC1` (centres undefined) [DESVENLAFAXINE]: the AC50 (in test [1]; at Progesterone receptor) was over 30 µM each time.

As to `OCCN1C[C@H](O)[C@@H](O)[C@H](O)[C@H]1CO` [MIGLITOL], the AC50 (in test [1]; on Progesterone receptor; in test [2]) was over 30 µM each time.

Regarding `C[N+]1(C)CCC(OC(=O)C(O)(c2ccccc2)C2CCCC2)C1` (centres undefined) [GLYCOPYRRONIUM BROMIDE], the AC50 on Glucocorticoid receptor and at Progesterone receptor was over 30 µM throughout.

For `CCC(=O)NCC[C@@H]1CCc2ccc3c(c21)CCO3` [RAMELTEON], the AC50 (in test [1]; at Progesterone receptor; in test [2]) was over 30 µM in each case.

Take `CC(=O)NCCCS(=O)(=O)O` [ACAMPROSATE]: the AC50 (on Glucocorticoid receptor; in test [3]) was over 30 µM throughout.

Consider `C[N+](C)(C)CCO` [CHOLINE], for which the half-maximal activity concentration (AC50) (on Progesterone receptor; in test [2]) was over 30 µM throughout.

Take `C[C@]12CC[C@@H]3c4ccc(O)cc4CC[C@H]3[C@@H]1C[C@@H](O)[C@@H]2O` [ESTRIOL]: the figures for the AC50 (on Progesterone receptor; in test [2]) were 3.3 µM and 28.7 µM, respectively.

As for `CCCCCCOc1nsnc1C1=CCCN(C)C1` [XANOMELINE], the results for the AC50 (at Progesterone receptor; in test [2]) were over 30 µM and 3.37 µM, respectively.

Consider `Cc1nc([N+](=O)[O-])cn1-c1ccc([N+](=O)[O-])cc1` [NITREFAZOLE], for which the AC50 (on Glucocorticoid receptor; in test [3]) was over 30 µM in each case.

`CN1C(C(=O)Nc2ccccn2)=C(O)c2sc(Cl)cc2S1(=O)=O` [LORNOXICAM]: in test [3], the AC50 was over 10 µM.

As for `CC(C)(S)[C@@H](N)C(=O)O` [PENICILLAMINE], the AC50 (on Progesterone receptor; in test [2]) was over 30 µM throughout.

With `CN(C)CCN1C(=O)c2ccccc2N(C)c2ccccc21` [DIBENZEPIN], the AC50 (in test [1]; on Progesterone receptor; in test [2]) was over 30 µM each time.

Turning to `CCc1oc2ccccc2c1C(=O)c1cc(I)c(O)c(I)c1` [BENZIODARONE], the AC50 was 4.27 µM at Progesterone receptor and 9.96 µM in test [2].

For `O=P1(NCCCl)OCCCN1CCCl` (centres undefined) [IFOSFAMIDE], the AC50 (at Glucocorticoid receptor; in test [3]) was over 30 µM throughout.

`O=C(CCNNC(=O)c1ccncc1)NCc1ccccc1` [NIALAMIDE]: the concentration at half-maximal activity (AC50) (in test [1]; at Progesterone receptor; in test [2]) was over 30 µM each time.

For the molecule `CCCSc1ccc2nc(NC(=O)OC)[nH]c2c1` [ALBENDAZOLE], the AC50 (on Glucocorticoid receptor; in test [3]) was over 10 µM throughout.

As to `CC[N+]1(C)[C@@H]2CC(OC(=O)[C@H](CO)c3ccccc3)C[C@H]1[C@@H]1O[C@@H]12` (some centres undefined) [OXITROPIUM], the AC50 (in test [1]; at Progesterone receptor; in test [2]) was over 30 µM in each case.

With `CC(C)Nc1ncccn1` [ISAXONINE], the AC50 (in test [1]; at Progesterone receptor; in test [2]) was over 30 µM each time.

For the molecule `CC(=O)N[C@@H]1[C@@H](O)[C@H](O)[C@@H](CO)O[C@H]1O` [N-ACETYLGLUCOSAMINE], the AC50 (in test [1]; on Progesterone receptor; in test [2]) was over 30 µM throughout.

As to `COCc1c(C(C)C)nc(C(C)C)c(/C=C/[C@@H](O)C[C@@H](O)CC(=O)O)c1-c1ccc(F)cc1` [CERIVASTATIN], the AC50 (on Progesterone receptor; in test [2]) was over 30 µM each time.

`COc1cc(NC(C)CCCN)c2ncccc2c1` (centres undefined) [PRIMAQUINE] had an AC50 at Progesterone receptor of 15.4 µM.

For `CN(C)/N=N/c1[nH]cnc1C(N)=O` [DACARBAZINE], the AC50 (on Glucocorticoid receptor; in test [3]) was over 10 µM throughout.

Take `CN(C)S(=O)(=O)c1ccc2c(c1)N(CCCN1CCC(CCO)CC1)c1ccccc1S2` [PIPOTIAZINE]: the AC50 in test [1] is over 30 µM; on Progesterone receptor it was over 30 µM; in test [2], 8.9 µM.

Take `CCCCN1C[C@H](O)[C@@H](O)[C@H](O)[C@H]1CO`: the AC50 (at Glucocorticoid receptor; in test [3]) was over 30 µM each time.

As for `Nc1ccn([C@H]2CC[C@@H](CO)O2)c(=O)n1` [ZALCITABINE], in test [3], the AC50 was over 10 µM.

In the case of `NS(=O)(=O)Cc1noc2ccccc12` [ZONISAMIDE], the AC50 (at Glucocorticoid receptor; in test [3]) was over 10 µM each time.

Take `CN1C(=O)CCS(=O)(=O)C1c1ccc(Cl)cc1` (centres undefined) [CHLORMEZANONE]: the concentration at half-maximal activity (AC50) (on Glucocorticoid receptor; in test [3]) was over 10 µM in each case.

Consider `Oc1c(Cl)cc(Cl)c2cccnc12` [CHLOROXINE], for which the AC50 (in test [1]; at Progesterone receptor; in test [2]) was over 30 µM in each case.

For `N[C@H](C(=O)O)[C@H](O)c1ccc(O)c(O)c1` [DROXIDOPA], the AC50 (in test [1]; on Progesterone receptor; in test [2]) was over 30 µM in each case.

For `CN(C)CCn1nnnc1SCC1=C(C(=O)O)N2C(=O)[C@@H](NC(=O)Cc3csc(N)n3)[C@H]2SC1` [CEFOTIAM], the AC50 (in test [1]; at Progesterone receptor; in test [2]) was over 30 µM throughout.

`Cc1cccc(Nc2ccccc2C(=O)O)c1C` [MEFENAMIC ACID]: the AC50 at Glucocorticoid receptor is over 10 µM; in test [3], over 10 µM; at Progesterone receptor, over 30 µM; in test [2], over 30 µM.

In the case of `COc1cc2nc(N(C)CCCNC(=O)C3CCCO3)nc(N)c2cc1OC` (centres undefined) [ALFUZOSIN], the AC50 (on Glucocorticoid receptor; in test [3]) was over 30 µM each time.

On to `C=C[C@H]1C[N@@]2CC[C@H]1C[C@H]2[C@H](O)c1ccnc2ccc(OC)cc12` [QUININE], for which the AC50 (in test [1]; at Progesterone receptor; in test [2]) was over 30 µM in each case.

Consider `O=C(O[C@H]1C[C@H]2CC[C@@H](C1)[N+]21CCCC1)C(O)(c1ccccc1)c1ccccc1` [TROSPIUM], for which, in test [3], the AC50 was over 30 µM.

As for `Clc1ccc(C(c2ccccc2Cl)C(Cl)Cl)cc1` (centres undefined) [MITOTANE], the AC50 at Glucocorticoid receptor was 1.4 µM; in test [3], over 10 µM.

As to `Cc1cc(C#N)cc(C)c1Oc1nc(Nc2ccc(C#N)cc2)nc(N)c1Br` [ETRAVIRINE], the figures for the AC50 (in test [1]; on Progesterone receptor; in test [2]) were over 10 µM, 0.08 µM and over 10 µM, respectively.

Take `CC(C)(C)NC[C@H](O)COc1ccccc1C1CCCC1` [PENBUTOLOL]: the AC50 (in test [1]; on Progesterone receptor; in test [2]) was over 30 µM each time.

For `CCC1=C(C)CN(C(=O)NCCc2ccc(S(=O)(=O)NC(=O)N[C@H]3CC[C@H](C)CC3)cc2)C1=O` [GLIMEPIRIDE], the AC50 (on Progesterone receptor; in test [2]) was over 30 µM throughout.

For the molecule `COc1ccccc1OCC(O)CN1CCN(CC(=O)Nc2c(C)cccc2C)CC1` (centres undefined) [RANOLAZINE], the AC50 (at Glucocorticoid receptor; in test [3]) was over 30 µM each time.

`O=C1Nc2ccc(Cl)cc2[C@@](C#CC2CC2)(C(F)(F)F)O1` [EFAVIRENZ] registered an AC50 on Glucocorticoid receptor of 2.71 µM. This lies in the single-digit micromolar range.
